Source: patent US20030088061A1, “Materials and methods to modulate ligand binding/enzymatic activity of alpha/beta proteins containing an allosteric regulatory site” (priority 2000, published 2003)

What was measured:
Type in all cases: cell-based
α4β7 = target: T1, α4β7 (Homo sapiens, UniProt P13612+P26010); experiment: JY/α4β7 cell adhesion to MAdCAM-1/Ig; conditions: PMA-treated JY cells
T1 construct: endogenous in cells; host or cells: JY cells
Method: (§1) To assess the selectivity of each compound, an IC50 value was determined for additional binding partner compounds JY/αVβ3 and vitronectin, JY/α4β1 and VCAM/Ig, JY/αdβ2 and VCAM, JY/[…] and ICAM-1, JY/αMβ2 and iC3b, and JY/α4β7 and MAdCAM-1.
(§2) For each IC50 assay, 50 μl of the ligand diluted in 50 mM bicarbonate buffer (pH 9.6) was dispensed per well of an Immulon-4 plate. A single plate was used to test two different ligands, each in triplicate, The coating concentration for the various ligands was as follows: VCAM-1/Ig at 2.0 μg/ml; ICAM-1/Ig at 5.0 μg/ml; vitronectin at 0.5 μg/ml; MAdCAM-1/Ig at 3.0 μg/ml, and iC3b at 5.0 μg/ml. The capture antibody, e.g. anti-CD18 monoclonal antibody TS1/22, was added at a concentration of 10 μg/ml in 50 μl/well. Ligand-coated plates were covered and stored overnight at 4° C. The following day, the contents of each well was decanted, and each plate was washed three times with 200 μl/well D-PBS. The plate was then blocked by the addition of 300 μl/well of 1% BSA/D-PBS solution. Each plate was again covered and incubated at room temperature for at least 1 hour.
(§3) Prior to transfer to the adhesion plate, the compounds were initially diluted by transferring 4.2 μl of the diluted compounds to a 96-well deepwell titer plate containing 0.7 ml/well of RPMI 1640, 0.1% BSA, and 3 ng/ml PMA (Sigma Corp., St. Louis, Mo.) pre-warmed to 37° C. The 1% BSA/D-PBS blocking solution was decanted from the 96-well Immulon-4 plates and replaced with 0.2 ml of diluted compound. For each 96-well plate to be screened, approximately 8×10^6 cells were collected by centrifugation and resuspended in adhesion media (RPMI 1640 containing 0.1% BSA) to a final concentration of 10^6/ml. To prevent PMA-dependent homotypic aggregation in the adhesion assay, the anti-CD18 antibody 22F12C (ICOS Corp., Bothell, Wash.) was added to the cell suspensions to a final concentration of 10 μg/ml, and the cells were incubated at 37° C. for 15 min. This antibody was not added to CD18-dependent adhesion assays involving JY/αLβ2, JY/αdβ2 or JY/αMβ2 and their corresponding ligands ICAM-1, VCAM-1, or iC3b.
(§4) The adhesion assay was initiated by addition of 100 μl of the cell suspension to each well of the Immulon-4 plate. […] Adherent cells were quantitated by determining the absorbance at 570 nm in a plate spectrophotometer. The percentage of cell binding was determined by using the mean values for each triplicate in a given assay and the formula below. […]
(§5) The four compounds Cmpd K, Cmpd W, Cmpd Z, Cmpd D identified in the primary screen were selected for further specificity profiling, whereby their IC50 values were determined in additional integrin-dependent adhesive events. […]

αMβ2 = target: T2, αMβ2 (Homo sapiens, UniProt P05107+P11215); experiment: JY/αMβ2 cell adhesion to iC3b; conditions: PMA-treated JY cells
T2 construct: expressed in transfected cells; host or cells: JY (human B lymphoblastoid) cells
Method: as §1, §2
(§6) Prior to transfer to the adhesion plate, the compounds were initially diluted by transferring 4.2 μl of the diluted compounds to a 96-well deepwell titer plate containing 0.7 ml/well of RPMI 1640, 0.1% BSA, and 3 ng/ml PMA (Sigma Corp., St. Louis, Mo.) pre-warmed to 37° C. The 1% BSA/D-PBS blocking solution was decanted from the 96-well Immulon-4 plates and replaced with 0.2 ml of diluted compound. […]
as §4, §5

αVβ3 = target: T3, αVβ3 (Homo sapiens, UniProt P05106+P06756); experiment: JY/αVβ3 cell adhesion to vitronectin; conditions: PMA-treated JY cells; read-out: VN αVβ3 IC50
T3 construct: endogenous in cells; host or cells: JY cells
Method: as §1, §2, §6, §4, §5

αdβ2 = target: T4, αdβ2 (Homo sapiens, UniProt P05107+Q13349); experiment: JY/αdβ2 cell adhesion to VCAM; conditions: PMA-treated JY cells
T4 construct: expressed in transfected cells; host or cells: JY cells, plasmid pMHneo/aD
Method: as §1, §2, §3, §4, §5

α4β1 = α4β1 (Homo sapiens, UniProt P05556+P13612); experiment: JY/α4β1 cell adhesion to VCAM-1/Ig; parameters: host or cells: JY cells; conditions: PMA-treated JY cells
Method: as §1, §2, §3, §4, §5

T3 sequence (P06756 31-889 limits assumed): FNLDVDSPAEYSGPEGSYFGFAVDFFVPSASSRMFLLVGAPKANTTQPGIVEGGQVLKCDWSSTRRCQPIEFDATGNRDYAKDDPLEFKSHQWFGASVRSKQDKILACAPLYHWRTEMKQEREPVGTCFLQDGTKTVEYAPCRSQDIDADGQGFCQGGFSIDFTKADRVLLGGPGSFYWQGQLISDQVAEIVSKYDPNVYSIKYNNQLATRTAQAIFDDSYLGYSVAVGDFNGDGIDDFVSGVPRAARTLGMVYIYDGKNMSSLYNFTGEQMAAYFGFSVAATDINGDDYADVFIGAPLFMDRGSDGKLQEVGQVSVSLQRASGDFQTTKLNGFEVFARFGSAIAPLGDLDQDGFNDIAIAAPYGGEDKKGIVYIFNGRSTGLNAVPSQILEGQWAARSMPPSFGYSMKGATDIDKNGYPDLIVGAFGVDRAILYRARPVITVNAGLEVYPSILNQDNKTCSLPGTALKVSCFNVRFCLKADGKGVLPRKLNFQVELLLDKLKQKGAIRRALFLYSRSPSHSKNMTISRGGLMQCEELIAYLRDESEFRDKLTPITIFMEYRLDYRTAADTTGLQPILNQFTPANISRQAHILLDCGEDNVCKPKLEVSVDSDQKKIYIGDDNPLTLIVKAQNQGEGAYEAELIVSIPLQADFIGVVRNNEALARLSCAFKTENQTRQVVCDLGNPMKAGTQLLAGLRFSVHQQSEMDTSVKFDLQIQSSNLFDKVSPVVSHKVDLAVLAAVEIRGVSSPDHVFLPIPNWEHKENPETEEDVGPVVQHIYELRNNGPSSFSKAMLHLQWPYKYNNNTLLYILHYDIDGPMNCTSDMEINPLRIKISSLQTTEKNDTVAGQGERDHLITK
T3 sequence (P06756 891-1048 partner limits assumed): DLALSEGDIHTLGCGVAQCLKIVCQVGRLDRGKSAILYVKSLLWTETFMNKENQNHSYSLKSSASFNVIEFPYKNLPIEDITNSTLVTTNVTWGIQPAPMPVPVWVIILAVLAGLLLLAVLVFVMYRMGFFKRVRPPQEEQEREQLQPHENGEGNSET
T3 sequence (P05106 27-788): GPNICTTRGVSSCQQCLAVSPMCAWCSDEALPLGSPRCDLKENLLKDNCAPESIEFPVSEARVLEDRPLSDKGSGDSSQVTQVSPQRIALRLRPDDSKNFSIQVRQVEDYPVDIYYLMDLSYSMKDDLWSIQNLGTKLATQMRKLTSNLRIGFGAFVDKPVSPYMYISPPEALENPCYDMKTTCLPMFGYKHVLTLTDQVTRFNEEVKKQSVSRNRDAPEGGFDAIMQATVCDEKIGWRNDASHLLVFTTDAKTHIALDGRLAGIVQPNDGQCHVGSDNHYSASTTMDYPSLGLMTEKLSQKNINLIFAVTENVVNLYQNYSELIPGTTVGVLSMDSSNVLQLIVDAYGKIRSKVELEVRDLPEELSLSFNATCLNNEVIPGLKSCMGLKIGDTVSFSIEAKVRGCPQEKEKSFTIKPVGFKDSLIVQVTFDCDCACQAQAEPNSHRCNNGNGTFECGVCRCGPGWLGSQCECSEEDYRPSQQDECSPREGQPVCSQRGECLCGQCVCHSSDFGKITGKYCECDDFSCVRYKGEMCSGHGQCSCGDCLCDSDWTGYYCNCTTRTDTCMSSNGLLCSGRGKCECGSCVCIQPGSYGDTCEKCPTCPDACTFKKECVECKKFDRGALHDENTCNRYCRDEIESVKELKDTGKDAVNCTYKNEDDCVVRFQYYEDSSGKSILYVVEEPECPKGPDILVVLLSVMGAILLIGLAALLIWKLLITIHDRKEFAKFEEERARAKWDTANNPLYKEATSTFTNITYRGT
T1 sequence (P13612 34-1032): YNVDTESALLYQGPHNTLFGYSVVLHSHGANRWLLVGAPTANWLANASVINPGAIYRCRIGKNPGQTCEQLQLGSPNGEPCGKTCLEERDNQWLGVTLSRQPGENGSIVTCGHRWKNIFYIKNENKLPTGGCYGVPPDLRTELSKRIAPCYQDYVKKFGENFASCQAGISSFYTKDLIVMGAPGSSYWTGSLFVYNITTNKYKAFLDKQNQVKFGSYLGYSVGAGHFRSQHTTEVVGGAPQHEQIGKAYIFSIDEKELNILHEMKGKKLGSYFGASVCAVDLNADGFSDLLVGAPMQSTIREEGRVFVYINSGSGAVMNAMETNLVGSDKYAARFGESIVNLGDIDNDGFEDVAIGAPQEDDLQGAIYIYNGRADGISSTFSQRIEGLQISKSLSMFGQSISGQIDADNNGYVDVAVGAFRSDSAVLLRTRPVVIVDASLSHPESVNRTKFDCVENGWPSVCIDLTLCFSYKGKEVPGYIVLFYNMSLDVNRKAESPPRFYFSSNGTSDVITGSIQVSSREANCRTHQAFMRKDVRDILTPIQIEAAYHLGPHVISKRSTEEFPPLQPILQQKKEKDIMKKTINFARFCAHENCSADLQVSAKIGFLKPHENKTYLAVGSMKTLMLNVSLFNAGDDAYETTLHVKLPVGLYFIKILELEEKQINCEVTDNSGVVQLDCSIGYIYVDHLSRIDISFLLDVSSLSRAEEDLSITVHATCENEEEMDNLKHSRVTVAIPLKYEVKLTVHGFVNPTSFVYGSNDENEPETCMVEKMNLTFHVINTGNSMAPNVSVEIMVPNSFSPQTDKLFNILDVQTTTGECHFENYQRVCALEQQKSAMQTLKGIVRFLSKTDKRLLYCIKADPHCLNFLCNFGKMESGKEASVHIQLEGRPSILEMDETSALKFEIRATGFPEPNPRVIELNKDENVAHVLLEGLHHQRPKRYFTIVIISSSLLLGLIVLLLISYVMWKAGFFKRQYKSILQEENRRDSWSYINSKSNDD
T1 sequence (P26010 20-798): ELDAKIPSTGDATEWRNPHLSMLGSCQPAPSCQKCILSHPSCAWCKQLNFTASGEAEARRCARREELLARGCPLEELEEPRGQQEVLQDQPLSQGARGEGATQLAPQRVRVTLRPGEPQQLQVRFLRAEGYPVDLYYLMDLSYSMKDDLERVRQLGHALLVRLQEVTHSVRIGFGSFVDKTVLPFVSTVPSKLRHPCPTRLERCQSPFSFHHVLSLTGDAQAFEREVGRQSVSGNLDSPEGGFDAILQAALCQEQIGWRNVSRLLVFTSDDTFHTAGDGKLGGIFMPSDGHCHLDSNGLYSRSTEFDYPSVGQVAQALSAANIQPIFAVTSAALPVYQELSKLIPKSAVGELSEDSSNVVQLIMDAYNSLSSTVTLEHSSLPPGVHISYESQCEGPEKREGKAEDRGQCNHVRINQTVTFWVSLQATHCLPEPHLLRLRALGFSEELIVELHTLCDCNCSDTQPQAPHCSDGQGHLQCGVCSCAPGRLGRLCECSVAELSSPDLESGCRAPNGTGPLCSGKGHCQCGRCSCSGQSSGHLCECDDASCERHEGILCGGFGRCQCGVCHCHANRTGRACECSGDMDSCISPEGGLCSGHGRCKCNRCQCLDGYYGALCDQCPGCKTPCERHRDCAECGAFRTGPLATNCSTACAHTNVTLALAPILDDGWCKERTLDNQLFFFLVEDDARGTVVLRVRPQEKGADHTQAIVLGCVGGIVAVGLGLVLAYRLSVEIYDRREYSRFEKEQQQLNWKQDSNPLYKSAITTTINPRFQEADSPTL
α4β1, sequence (P13612 34-1032): as the sequence (P13612 34-1032) above
α4β1, sequence (P05556 21-798): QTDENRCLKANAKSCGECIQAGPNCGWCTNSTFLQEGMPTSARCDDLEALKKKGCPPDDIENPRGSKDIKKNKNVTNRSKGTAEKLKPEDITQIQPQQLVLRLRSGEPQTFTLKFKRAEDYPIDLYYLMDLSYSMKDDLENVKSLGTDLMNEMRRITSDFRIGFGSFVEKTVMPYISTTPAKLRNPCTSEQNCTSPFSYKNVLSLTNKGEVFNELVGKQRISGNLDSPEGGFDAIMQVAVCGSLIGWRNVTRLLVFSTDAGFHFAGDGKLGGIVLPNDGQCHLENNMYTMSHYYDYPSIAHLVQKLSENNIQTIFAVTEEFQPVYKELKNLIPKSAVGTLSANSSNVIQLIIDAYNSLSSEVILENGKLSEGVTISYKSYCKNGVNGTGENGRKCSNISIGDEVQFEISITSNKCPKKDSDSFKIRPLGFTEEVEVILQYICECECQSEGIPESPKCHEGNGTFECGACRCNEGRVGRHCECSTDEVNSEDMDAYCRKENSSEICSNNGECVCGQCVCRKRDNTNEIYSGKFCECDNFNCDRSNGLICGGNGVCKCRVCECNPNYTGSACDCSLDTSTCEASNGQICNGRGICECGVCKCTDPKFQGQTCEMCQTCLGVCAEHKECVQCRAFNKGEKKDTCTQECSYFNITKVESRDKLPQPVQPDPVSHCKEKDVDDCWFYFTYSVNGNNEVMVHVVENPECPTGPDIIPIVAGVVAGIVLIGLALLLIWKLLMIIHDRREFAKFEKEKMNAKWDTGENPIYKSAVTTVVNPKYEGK

| SMILES | IC50 (α4β7) | IC50 (αMβ2) | IC50 (αVβ3) | IC50 (αdβ2) | IC50 (α4β1) |
| --- | --- | --- | --- | --- | --- |
| CC(=O)Oc1ccccc1C(=O)n1c(-c2ccccc2)cc2ccccc21 [Cmpd D] | 4 µM | 7 µM | 4 µM | > 40 µM | > 40 µM |
| O=C(NCc1cccnc1)c1ccccc1C(=O)Nc1sc2ccccc2c1Cl [Cmpd K] | 4 µM | 4 µM | 6 µM | > 40 µM | > 40 µM |
| Nc1ccc(Sc2ccc(NC(=O)CCc3ccccc3)cc2)c(Cl)c1 [Cmpd W] | 5 µM | 4 µM | 8 µM | > 40 µM | > 40 µM |
| CC(CN(C)C)NCc1ccccc1Sc1ccc(C(C)(C)C)cc1 (stereo not drawn) [Cmpd Z] | 11 µM |  |  | > 40 µM | > 40 µM |
